Where two headings read alike, the source gives them in different places.
Key:
[1] = system: cGAS-STING signalling pathway; test: Stimulation of human sarcoma cell lines with cGAS, STING and RIG-I agonists, cytokine secretion; type: cell-based
Experimental: For stimulation in vitro, 30,000 or 60,000 cells were seeded per well in a 24-well plate one day prior to stimulation. Cells were stimulated by transfection using Lipofectamine 2000 transfection reagent (Invitrogen, Cat#: 11668019) combined with the following agents: 2 μg/mL HT-DNA (Sigma-Aldrich, Cat#: D6898), 8 μg/mL 2′3′-cGAMP (Invivogen, Cat#: tlrl-nacga23-5), and 40 ng/ml Poly(I:C)-LMW (Invivogen, Cat#: tlrl-picw). An untreated control and a lipofectamine 2000 control were included. All samples were run in biological duplicates or triplicates. […]
Supernatants from cells stimulated with HT-DNA and Poly(I:C) were analyzed for Interferonβ (IFNβ), CXCL10 and IL-6 using Meso Scale Discovery multiplex Enzyme-linked Immunosorbent assay.
Supernatants from cells stimulated with 2′3′-cGAMP were analyzed for CXCL10 and IL-6 using sandwich ELISA (RnD Systems, Cat#: DY299 and Cat#: DY206). CCL5 content in supernatants from cells stimulated with HT-DNA and Poly(I:C) were analyzed using sandwich ELISA (RnD Systems, Cat#: DY278). […]
Functional type I IFN in supernatants from cells stimulated with 2′3′-cGAMP was quantified using a type I interferon reporter cell assay (HEK-Blue IFN-α/β) (Invivogen, Cat#: hkb-ifnab) according to manufacturer's guidelines. […] The concentration of type I IFN was determined from a standard curve of IFN-a (PBL Assay Science, Cat#: 11100-1). […]

SW872 = test: Doxorubicin IC50 viability determination (CellTiter 96 AQueous One Solution Cell Proliferation Assay); type: cell-based; details: Homo sapiens, SW872, 48 h, 48 hrs of treatment, read-out: IC50 viability concentration
Experimental: Prior to analysing the immunological reponse to doxorubicin treatment (Sigma-Aldrich, Cat#: D1515-10 MG), and IC50 viability concentration was determined for both wt cells and electroporated cells (mock and STING+). A two-fold dilution of doxorubicin including 10 different dilutions ranging from 16 μM to 0.03125 μM was added to a cell culture and viability was determined using CellTiter 96 AQueous One Solution Cell Proliferation Assay (Promega, Cat#: G3580) after 48 hrs of treatment.
(§1) Wt, mock and STING+ cells were treated with IC50 values of doxorubicin in biological triplicates (IC50 for wt: 0.5 μM and IC50 for mock and STING+: 0.3 μM) and left for 48 hrs before harvest.

STING = test: Cytokine gene expression (qPCR) in STING-reactivated SW872 after doxorubicin treatment; type: cell-based, human; details: SW872 after CRISPRa targeting STING (sgRNA #4 + dCas9-VPR mRNA), doxorubicin at IC50, 48 hrs
Experimental: For each sample 500,000 cells were resuspended in PBS, spun down at 300 xG for 5 minutes at room temperature (RT) and resuspended in 17 μL opti-MEM (Gibco, Cat#: 31985070). 1.9 μL of dCas9-VPR mRNA (Horizon Discovery, Cat#: CAS12211) and 1 μg of sgRNA was added. The cell suspension was added to an electroporation strip and electroporated on a Lonza 4D nucleofector using pulse code CM138. Afterwards, the electroporation strip containing the cells was left for 3 minutes on the bench top to allow cells to reform. The samples were diluted in preheated DMEM complete and 60,000 wt cells and 120,000 mock and STING+ cells were seeded in a 12-well plate one day prior to doxorubicin treatment to allow cells to adhere.
as §1
RNA from cells was purified using NucleoSpin RNA for the isolation of total RNA (Macherey-Nagel, Cat#: 740984.250M) according to manufacturer's guidelines. cDNA was synthesized using iScript cDNA Synthesis Kit (Bio-Rad, Cat#: 1708891) according to manufacturer's guidelines using 400ng of RNA. Real-time PCR was carried out using 1 μL of 10 ng/μL cDNA in a total volume of 10 μL using KAPA SYBR FAST (Roche, Cat#: KK4611) and the following targets and primers: […]
Samples were run in biological triplicates and technical duplicates on a 384 well plate (Hounisen, Cat#: 72.1985.202). The analysis was performed using the LightCycler 480 software version LCS480 1.5.1.62(Roche).
The cancer cell line SW872 was electroporated with dCas9-VPR mRNA and either nothing (mock) or sgRNA #4 and after additional 24 hrs each cell condition was exposed to the anthracycline chemotherapy drug doxorubicin. Doxorubicin's mode-of-action is to increase DNA damage leakage and this has shown to induce a STING-dependent immune response in conjunction to the cellular toxicity is has on cancer cells.
Supernatants were collected 48 hrs after doxorubicin treatment and immune activation was assessed by qPCR (FIG. 8A-E).

human STING gene = test: CRISPR activation of STING in SW872, STING expression by immunoblotting and qPCR; type: cell-based; details: SW872, electroporated with dCas9-VPR mRNA, 48 hours
Excerpt: To upregulate STING, CRISPR activation technique was used. Synthetic guideRNAs (sgRNAs) are used to guide a deactivated Cas9 (dCas9) to a site in the vicinity of the transcriptional start site of STING. Attached to the dCas9 are three transcription activators (VP64, Rta, p65; collectively termed VPR), which can activate transcription of the target gene. The dCas9-VPR is delivered as mRNA and is translated by the translation apparatus in the host cell.
To test the ability of the individual sgRNAs to upregulate STING expression, each sgRNA was tested individually as well as all 5 sgRNAs together in the human sarcoma cell line SW872 or HT1080. The sequence of the DNA binding part of the 5 sgRNAs were the following:
sgRNAs were purchased from Synthego and comprise 2′-O-Methyl at the three first and last bases as well as 3′ phosphorothioate bonds between the first three and last two bases.
dCas9-VPR mRNA (SEQ ID NO: 29 as produced by in vitro transcription) (or purchased from Horizon Discovery, Cat#: CAS12211) comprises full substitution of uridine with pseudouridine and cotranscriptional capping with CleanCap AG in a 1:4 ratio between GTP and CleanCap.
For each sample 500,000 cells were resuspended in PBS, spun down at 300 xg for 5 minutes at room temperature (RT) and resuspended in 17 μL opti-MEM (Gibco, Cat#: 31985070). 1.9 μL of dCas9-VPR mRNA (Horizon Discovery, Cat#: CAS12211) (SEQ ID NO: 29) and 1 μg of sgRNA (1 μg of each sgRNA in the sample with all 5 sgRNAs) were added. The cell suspensions were added to an electroporation strip and electroporated on a Lonza 4D nucleofector using pulse code CM138. Afterwards, the electroporation strip containing the cells were left for 3 minutes on the bench top to allow cells to reform. The samples were diluted in preheated DMEM complete medium and cells were seeded at 50-100.000 cells per well in a 24-well plate and left for various days before harvest. […]

Nc1nc2c(ncn2[C@@H]2O[C@@H]3COP(=O)(O)O[C@H]4[C@@H](O)[C@H](n5cnc6c(N)ncnc65)O[C@@H]4COP(=O)(O)O[C@@H]2[C@@H]3O)c(=O)[nH]1 [2′3′-cGAMP, 2′,3′-cyclic GMP-AMP]
cell responsiveness (secretion levels of IFNb, CXCL10, IL6 or CCL5) ([1]; SW872, 20-24 hours of activation): not responding

COc1cccc2c1C(=O)c1c(O)c3c(c(O)c1C2=O)C[C@@](O)(C(=O)CO)C[C@@H]3O[C@H]1C[C@H](N)[C@H](O)[C@H](C)O1 [doxorubicin]
IC50 (SW872; mock and STING+ (electroporated) SW872 cells): 0.3 µM | IC50 (SW872; wt SW872 cells): 0.5 µM | gene expression of CCL5 (STING): increased | gene expression of CXCL10 (STING): increased | gene expression of IFNb (STING): increased

Poly(I:C)
cell responsiveness (secretion levels of IFNb, CXCL10, IL6 or CCL5) ([1]; all four cell lines (HT-1080, SW872, SW982, SK-LMS1), 20-24 hours of activation): responded

sgRNA #4: sgRNA targeting human STING gene, DNA binding part CAGAAACCGGCAGGCUCUCU (listed as RNA, chemistry not fully specified)
STING expression (immunoblotting, qPCR) (human STING gene): equally or better than the combination of all five sgRNAs | STING expression (immunoblotting, qPCR) (human STING gene; listed as SEQ ID NO: 4): highest activity | STING expression (immunoblotting, qPCR) (human STING gene; listed as sgRNA#4): highest expression level

Reference: patent US20260015599A1, “TARGETING THE STING1 GENE BY CRISPR ACTIVATION” (AARHUS UNIVERSITET, priority 2022, published 2026)
